In ChEMBL document CHEMBL2016536, “New triazole derivatives as antifungal agents: synthesis via click reaction, in vitro evaluation and molecular docking studies” (2012):
Values after ≈ are worked out from the molar mass of the structure shown.

Tests used:
Type in all cases: functional
Aspergillus fumigatus = assay: Antifungal activity against Aspergillus fumigatus by microbroth dilution method
Candida parapsilosis = assay: Antifungal activity against Candida parapsilosis by microbroth dilution method; conditions: Lodderomyces parapsilosis
Candida albicans [1] = assay: Antifungal activity against Candida albicans SC5314 after 24 hrs by microbroth dilution method; conditions: SC5314, 24 h
Candida tropicalis [2] = assay: Antifungal activity against Candida tropicalis by microbroth dilution method
Kluyveromyces marxianus [3] = assay: Antifungal activity against Candida kefyr by microbroth dilution method
Candida albicans [4] = assay: Antifungal activity against Candida albicans Y0109 after 24 hrs by microbroth dilution method; conditions: Y0109, 24 h
Trichophyton rubrum = assay: Antifungal activity against Trichophyton rubrum by microbroth dilution method
Cryptococcus neoformans = assay: Antifungal activity against Cryptococcus neoformans after 72 hrs by microbroth dilution method
Kluyveromyces marxianus [5] = assay: Ratio of MIC80 for fluconazole to compound for Candida kefyr by microbroth dilution method
Candida tropicalis [6] = assay: Ratio of MIC80 for fluconazole to compound for Candida tropicalis by microbroth dilution method
Candida albicans [7] = assay: Ratio of MIC80 for fluconazole to compound for Candida albicans SC5314 after 24 hrs by microbroth dilution method

OC(Cc1cn(Cc2cccc(Br)c2)nn1)(Cn1cncn1)c1ccc(F)cc1F (centres undefined)
MIC80 (Aspergillus fumigatus): 8 µg/mL (≈ 16.8 µM) | MIC80 (Candida parapsilosis): 0.125 µg/mL (≈ 0.263 µM) | MIC80 (Candida albicans [1]): < 0.125 µg/mL | MIC80 (Candida tropicalis [2]): 0.25 µg/mL (≈ 0.526 µM) | MIC80 (Kluyveromyces marxianus [3]): 0.125 µg/mL (≈ 0.263 µM) | MIC80 (Candida albicans [4]): 0.0625 µg/mL (≈ 0.131 µM) | MIC80 (Trichophyton rubrum): 0.25 µg/mL (≈ 0.526 µM) | MIC80 (Cryptococcus neoformans): 0.25 µg/mL (≈ 0.526 µM)

OC(Cc1cn(Cc2cccc(Cl)c2)nn1)(Cn1cncn1)c1ccc(F)cc1F (centres undefined)
MIC80 (Aspergillus fumigatus): 8 µg/mL (≈ 18.6 µM) | MIC80 (Candida parapsilosis): 0.125 µg/mL (≈ 0.29 µM) | MIC80 (Candida albicans [1]): < 0.125 µg/mL | MIC80 (Candida tropicalis [2]): 0.25 µg/mL (≈ 0.58 µM) | MIC80 (Kluyveromyces marxianus [3]): 0.0625 µg/mL (≈ 0.145 µM) | MIC80 (Candida albicans [4]): 0.0625 µg/mL (≈ 0.145 µM) | MIC80 (Trichophyton rubrum): 0.125 µg/mL (≈ 0.29 µM) | MIC80 (Cryptococcus neoformans): 0.5 µg/mL (≈ 1.16 µM)

OC(Cc1cn(Cc2ccc(F)c(F)c2)nn1)(Cn1cncn1)c1ccc(F)cc1F (centres undefined)
MIC80 (Aspergillus fumigatus): 16 µg/mL (≈ 37 µM) | MIC80 (Candida parapsilosis): 0.125 µg/mL (≈ 0.289 µM) | Ratio (Kluyveromyces marxianus [5]): 64 | MIC80 (Candida albicans [1]): 0.25 µg/mL (≈ 0.578 µM) | Ratio (Candida tropicalis [6]): 16 | MIC80 (Candida tropicalis [2]): 0.125 µg/mL (≈ 0.289 µM) | MIC80 (Kluyveromyces marxianus [3]): 0.25 µg/mL (≈ 0.578 µM) | MIC80 (Candida albicans [4]): 0.125 µg/mL (≈ 0.289 µM) | MIC80 (Trichophyton rubrum): 0.25 µg/mL (≈ 0.578 µM) | MIC80 (Cryptococcus neoformans): 1 µg/mL (≈ 2.31 µM)

O=[N+]([O-])c1ccccc1Cn1cc(CC(O)(Cn2cncn2)c2ccc(F)cc2F)nn1 (centres undefined)
MIC80 (Aspergillus fumigatus): 32 µg/mL (≈ 72.5 µM) | MIC80 (Candida parapsilosis): < 0.25 µg/mL | MIC80 (Candida albicans [1]): < 0.125 µg/mL | MIC80 (Candida tropicalis [2]): 0.125 µg/mL (≈ 0.283 µM) | MIC80 (Kluyveromyces marxianus [3]): 0.0625 µg/mL (≈ 0.142 µM) | MIC80 (Candida albicans [4]): 0.0625 µg/mL (≈ 0.142 µM) | MIC80 (Trichophyton rubrum): 0.25 µg/mL (≈ 0.566 µM) | MIC80 (Cryptococcus neoformans): 0.5 µg/mL (≈ 1.13 µM)

CC(C)(C)c1ccc(Cn2cc(CC(O)(Cn3cncn3)c3ccc(F)cc3F)nn2)cc1 (centres undefined)
MIC80 (Aspergillus fumigatus): 4 µg/mL (≈ 8.84 µM) | MIC80 (Candida parapsilosis): 0.125 µg/mL (≈ 0.276 µM) | MIC80 (Candida albicans [1]): 0.0625 µg/mL (≈ 0.138 µM) | MIC80 (Candida tropicalis [2]): 0.0625 µg/mL (≈ 0.138 µM) | MIC80 (Kluyveromyces marxianus [3]): 0.0625 µg/mL (≈ 0.138 µM) | MIC80 (Candida albicans [4]): 0.0625 µg/mL (≈ 0.138 µM) | MIC80 (Trichophyton rubrum): 0.0625 µg/mL (≈ 0.138 µM) | MIC80 (Cryptococcus neoformans): < 0.125 µg/mL

OC(Cc1cn(Cc2ccccc2Cl)nn1)(Cn1cncn1)c1ccc(F)cc1F (centres undefined)
MIC80 (Aspergillus fumigatus): 16 µg/mL (≈ 37.1 µM) | MIC80 (Candida parapsilosis): 0.0625 µg/mL (≈ 0.145 µM) | MIC80 (Candida albicans [1]): 0.0625 µg/mL (≈ 0.145 µM) | MIC80 (Candida tropicalis [2]): 0.0625 µg/mL (≈ 0.145 µM) | MIC80 (Kluyveromyces marxianus [3]): 0.125 µg/mL (≈ 0.29 µM) | MIC80 (Candida albicans [4]): 0.0625 µg/mL (≈ 0.145 µM) | MIC80 (Trichophyton rubrum): 0.25 µg/mL (≈ 0.58 µM) | MIC80 (Cryptococcus neoformans): 0.25 µg/mL (≈ 0.58 µM)

N#Cc1cccc(Cn2cc(CC(O)(Cn3cncn3)c3ccc(F)cc3F)nn2)c1 (centres undefined)
MIC80 (Aspergillus fumigatus): 32 µg/mL (≈ 75.9 µM) | MIC80 (Candida parapsilosis): 0.25 µg/mL (≈ 0.593 µM) | MIC80 (Candida albicans [1]): 0.125 µg/mL (≈ 0.297 µM) | MIC80 (Candida tropicalis [2]): 0.125 µg/mL (≈ 0.297 µM) | MIC80 (Kluyveromyces marxianus [3]): < 0.125 µg/mL | MIC80 (Candida albicans [4]): 0.0625 µg/mL (≈ 0.148 µM) | MIC80 (Trichophyton rubrum): 0.25 µg/mL (≈ 0.593 µM) | MIC80 (Cryptococcus neoformans): 1 µg/mL (≈ 2.37 µM)

COc1ccc(Cn2cc(CC(O)(Cn3cncn3)c3ccc(F)cc3F)nn2)cc1OC (centres undefined)
MIC80 (Aspergillus fumigatus): 2 µg/mL (≈ 4.38 µM) | MIC80 (Candida parapsilosis): 0.0625 µg/mL (≈ 0.137 µM) | MIC80 (Candida albicans [1]): 0.0625 µg/mL (≈ 0.137 µM) | MIC80 (Candida tropicalis [2]): 0.125 µg/mL (≈ 0.274 µM) | MIC80 (Kluyveromyces marxianus [3]): 0.0625 µg/mL (≈ 0.137 µM) | MIC80 (Candida albicans [4]): 0.0156 µg/mL (≈ 0.0342 µM) | MIC80 (Trichophyton rubrum): 0.0625 µg/mL (≈ 0.137 µM) | MIC80 (Cryptococcus neoformans): 0.0625 µg/mL (≈ 0.137 µM)

OC(Cc1cn(Cc2cccc(F)c2)nn1)(Cn1cncn1)c1ccc(F)cc1F (centres undefined)
MIC80 (Aspergillus fumigatus): 32 µg/mL (≈ 77.2 µM) | MIC80 (Candida parapsilosis): 0.125 µg/mL (≈ 0.302 µM) | MIC80 (Candida albicans [1]): < 0.125 µg/mL | MIC80 (Candida tropicalis [2]): 0.25 µg/mL (≈ 0.603 µM) | MIC80 (Kluyveromyces marxianus [3]): 0.0625 µg/mL (≈ 0.151 µM) | MIC80 (Candida albicans [4]): 0.0625 µg/mL (≈ 0.151 µM) | MIC80 (Trichophyton rubrum): 0.25 µg/mL (≈ 0.603 µM) | MIC80 (Cryptococcus neoformans): 0.25 µg/mL (≈ 0.603 µM)

CC(=O)N1CCN(c2ccc(OCC3COC(Cn4ccnc4)(c4ccc(Cl)cc4Cl)O3)cc2)CC1 (centres undefined) [KETOCONAZOLE]
MIC80 (Aspergillus fumigatus): 0.0156 µg/mL (≈ 0.0294 µM) | MIC80 (Candida parapsilosis): 0.0039 µg/mL (≈ 0.00734 µM) | MIC80 (Candida albicans [1]): 0.0625 µg/mL (≈ 0.118 µM) | MIC80 (Candida tropicalis [2]): 0.0039 µg/mL (≈ 0.00734 µM) | MIC80 (Kluyveromyces marxianus [3]): 0.0625 µg/mL (≈ 0.118 µM) | MIC80 (Candida albicans [4]): 0.0625 µg/mL (≈ 0.118 µM) | MIC80 (Trichophyton rubrum): 0.0156 µg/mL (≈ 0.0294 µM) | MIC80 (Cryptococcus neoformans): 0.0156 µg/mL (≈ 0.0294 µM)

Cc1ccccc1Cn1cc(CC(O)(Cn2cncn2)c2ccc(F)cc2F)nn1 (centres undefined)
MIC80 (Aspergillus fumigatus): 2 µg/mL (≈ 4.87 µM) | MIC80 (Candida parapsilosis): 0.0625 µg/mL (≈ 0.152 µM) | MIC80 (Candida albicans [1]): 0.0625 µg/mL (≈ 0.152 µM) | MIC80 (Candida tropicalis [2]): 0.125 µg/mL (≈ 0.305 µM) | MIC80 (Kluyveromyces marxianus [3]): 0.0039 µg/mL (≈ 0.0095 µM) | MIC80 (Candida albicans [4]): 0.0156 µg/mL (≈ 0.038 µM) | MIC80 (Trichophyton rubrum): 0.0625 µg/mL (≈ 0.152 µM) | MIC80 (Cryptococcus neoformans): 0.125 µg/mL (≈ 0.305 µM)

COc1ccc(OC)c(Cn2cc(CC(O)(Cn3cncn3)c3ccc(F)cc3F)nn2)c1 (centres undefined)
MIC80 (Aspergillus fumigatus): 2 µg/mL (≈ 4.38 µM) | MIC80 (Candida parapsilosis): 0.0625 µg/mL (≈ 0.137 µM) | MIC80 (Candida albicans [1]): 0.0625 µg/mL (≈ 0.137 µM) | MIC80 (Candida tropicalis [2]): 0.125 µg/mL (≈ 0.274 µM) | MIC80 (Kluyveromyces marxianus [3]): 0.0625 µg/mL (≈ 0.137 µM) | MIC80 (Candida albicans [4]): 0.0156 µg/mL (≈ 0.0342 µM) | MIC80 (Trichophyton rubrum): 0.0625 µg/mL (≈ 0.137 µM) | MIC80 (Cryptococcus neoformans): 0.0625 µg/mL (≈ 0.137 µM)

Cc1ccc(Cn2cc(CC(O)(Cn3cncn3)c3ccc(F)cc3F)nn2)cc1 (centres undefined)
Ratio (Candida albicans [7]): 128 | MIC80 (Aspergillus fumigatus): 2 µg/mL (≈ 4.87 µM) | MIC80 (Candida parapsilosis): 0.0625 µg/mL (≈ 0.152 µM) | Ratio (Kluyveromyces marxianus [5]): 256 | MIC80 (Candida albicans [1]): 0.0156 µg/mL (≈ 0.038 µM) | MIC80 (Candida tropicalis [2]): 0.125 µg/mL (≈ 0.305 µM) | MIC80 (Kluyveromyces marxianus [3]): 0.0156 µg/mL (≈ 0.038 µM) | MIC80 (Candida albicans [4]): 0.0039 µg/mL (≈ 0.0095 µM) | MIC80 (Trichophyton rubrum): 0.0625 µg/mL (≈ 0.152 µM) | MIC80 (Cryptococcus neoformans): 0.125 µg/mL (≈ 0.305 µM)

Cc1cccc(Cn2cc(CC(O)(Cn3cncn3)c3ccc(F)cc3F)nn2)c1 (centres undefined)
MIC80 (Aspergillus fumigatus): 4 µg/mL (≈ 9.75 µM) | MIC80 (Candida parapsilosis): 0.0625 µg/mL (≈ 0.152 µM) | MIC80 (Candida albicans [1]): 0.0625 µg/mL (≈ 0.152 µM) | MIC80 (Candida tropicalis [2]): 0.125 µg/mL (≈ 0.305 µM) | MIC80 (Kluyveromyces marxianus [3]): 0.0156 µg/mL (≈ 0.038 µM) | MIC80 (Candida albicans [4]): 0.0156 µg/mL (≈ 0.038 µM) | MIC80 (Trichophyton rubrum): 0.0625 µg/mL (≈ 0.152 µM) | MIC80 (Cryptococcus neoformans): 0.125 µg/mL (≈ 0.305 µM)

N#Cc1ccccc1Cn1cc(CC(O)(Cn2cncn2)c2ccc(F)cc2F)nn1 (centres undefined)
MIC80 (Aspergillus fumigatus): 16 µg/mL (≈ 38 µM) | MIC80 (Candida parapsilosis): 0.25 µg/mL (≈ 0.593 µM) | MIC80 (Candida albicans [1]): 0.125 µg/mL (≈ 0.297 µM) | MIC80 (Candida tropicalis [2]): 0.125 µg/mL (≈ 0.297 µM) | MIC80 (Kluyveromyces marxianus [3]): < 0.125 µg/mL | MIC80 (Candida albicans [4]): 0.0625 µg/mL (≈ 0.148 µM) | MIC80 (Trichophyton rubrum): 0.25 µg/mL (≈ 0.593 µM) | MIC80 (Cryptococcus neoformans): 0.5 µg/mL (≈ 1.19 µM)
